Columns and labels:
[1] = system: PA-1 ovarian cancer cells; test: Cell growth inhibition, Sulforhodamine B assay, PA-1; type: cell-based; conditions: 120 h, 5 days culture, SRB assay, read-out: Cell Line GI50 Range PA-1
[2] = biological target: T1, Aurora B (Homo sapiens, UniProt Q96GD4); test: Aurora B inhibition assay (Z-Lyte); type: biochemical; conditions: 28 nM Aurora B, 128 μM ATP; read-out: IC50 Ranges Aurora B
T1 construct: purchased Invitrogen PV3970
Protocol: Aurora B inhibition was determined using the Z-Lyte assay kit from Invitrogen. The assay was performed using the recommended manufacturer's instructions with 128 μM ATP and 28 nM Aurora B (Invitrogen cat #PV3970). The % inhibition values were determined according to the manufacturer's directions and IC50 values were obtained using a non-linear 4 point logistic curve fit (XLfit4, IDBS)

[3] = system: HT29 colon cancer cells; test: Cell growth inhibition, Sulforhodamine B assay, HT29; type: cell-based; conditions: Homo sapiens, HT-29, 120 h, 5 days culture, SRB assay, read-out: Cell Line GI50 Range HT29
[4] = system: MDA-MB-468 breast cancer cells; test: Cell growth inhibition, Sulforhodamine B assay, MDA-MB-468; type: cell-based; conditions: Homo sapiens, 120 h, 5 days culture, SRB assay, read-out: Cell Line GI50 Range MDA-MB-468
[5] = system: Colon tumor initiating cells (TICs), 12 colon; test: Colon tumor-initiating cell growth inhibition (Alamar Blue); type: cell-based; conditions: 216 h, 9 days, read-out: GI50 range 12 colon
[6] = system: MDA-MB-231 breast cancer cells; test: Cell growth inhibition, Sulforhodamine B assay, MDA-MB-231; type: cell-based; conditions: Homo sapiens, 120 h, 5 days culture, SRB assay, read-out: Cell Line GI50 Range MDA-MB-231
[7] = system: OVCAR-3 ovarian cancer cells; test: Cell growth inhibition, Sulforhodamine B assay, OVCAR-3; type: cell-based; conditions: Homo sapiens, 120 h, 5 days culture, SRB assay, read-out: Cell Line GI50 Range OVCAR-3
[8] = system: Ovarian TICs, 2393A ovarian; test: Ovarian tumor-initiating cell growth inhibition (Alamar Blue); type: cell-based; conditions: 144 h, 6 days, read-out: GI50 range 2393A ovarian
[9] = biological target: T2, human TTK (Homo sapiens, UniProt P33981); test: TTK inhibition assay (indirect ELISA); type: biochemical; conditions: GST-TTK 0.68 nM, 16 μM ATP; read-out: IC50 Ranges TTK
T2 construct: amino terminal GST fusion of full length human TTK; purchased Invitrogen
T2 sequence (P33981 1-857): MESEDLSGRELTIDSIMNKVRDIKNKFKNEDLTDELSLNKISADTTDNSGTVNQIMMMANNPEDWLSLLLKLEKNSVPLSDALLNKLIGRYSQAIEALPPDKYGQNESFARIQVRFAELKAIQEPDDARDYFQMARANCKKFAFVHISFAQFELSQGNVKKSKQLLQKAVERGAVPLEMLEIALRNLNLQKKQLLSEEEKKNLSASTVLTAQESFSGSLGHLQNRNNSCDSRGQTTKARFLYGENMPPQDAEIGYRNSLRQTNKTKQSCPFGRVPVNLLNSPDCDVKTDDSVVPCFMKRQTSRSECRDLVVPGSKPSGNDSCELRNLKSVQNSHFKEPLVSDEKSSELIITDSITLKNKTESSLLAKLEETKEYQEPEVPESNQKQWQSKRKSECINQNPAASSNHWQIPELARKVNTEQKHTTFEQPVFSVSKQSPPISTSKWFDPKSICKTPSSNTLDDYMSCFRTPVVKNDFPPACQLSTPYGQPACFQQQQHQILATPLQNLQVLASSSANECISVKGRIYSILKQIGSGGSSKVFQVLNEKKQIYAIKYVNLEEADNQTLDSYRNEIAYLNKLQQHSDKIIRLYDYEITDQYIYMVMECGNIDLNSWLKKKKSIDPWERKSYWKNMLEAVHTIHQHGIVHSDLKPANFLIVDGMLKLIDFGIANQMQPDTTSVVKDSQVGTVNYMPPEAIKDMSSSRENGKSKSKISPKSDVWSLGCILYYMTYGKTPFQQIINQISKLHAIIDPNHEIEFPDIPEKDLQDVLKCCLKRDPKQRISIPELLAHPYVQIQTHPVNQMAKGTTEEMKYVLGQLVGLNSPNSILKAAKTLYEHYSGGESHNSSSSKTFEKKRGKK

[10] = system: HCT116 colon cancer cells; test: Cell growth inhibition, Sulforhodamine B assay, HCT116; type: cell-based; conditions: Homo sapiens, HCT-116, 120 h, 5 days culture, SRB assay, read-out: Cell Line GI50 Range HCT116
[11] = biological target: T3, human PLK4 (Homo sapiens, UniProt O00444); test: PLK4 inhibition assay (indirect ELISA); type: biochemical; conditions: GST-PLK4 4 nM, 15 μM ATP; read-out: IC50 Ranges PLK4
T3 construct: amino terminal GST fusion of residues 1-391 of human PLK4; made in house; host or cells: E. coli
T3 sequence (O00444 1-391): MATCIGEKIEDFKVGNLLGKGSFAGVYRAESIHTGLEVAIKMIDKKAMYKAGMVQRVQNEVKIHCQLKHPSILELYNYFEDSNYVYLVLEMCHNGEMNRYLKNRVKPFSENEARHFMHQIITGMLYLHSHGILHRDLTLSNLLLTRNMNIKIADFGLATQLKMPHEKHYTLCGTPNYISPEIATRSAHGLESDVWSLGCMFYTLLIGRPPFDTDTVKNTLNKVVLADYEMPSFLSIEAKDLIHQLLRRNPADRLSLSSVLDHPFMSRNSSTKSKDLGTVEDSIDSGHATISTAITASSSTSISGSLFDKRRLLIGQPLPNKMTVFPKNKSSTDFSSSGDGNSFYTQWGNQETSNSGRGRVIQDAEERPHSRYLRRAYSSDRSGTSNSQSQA
Outline: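 Dephosphorylated GST-tagged human PLK4 (residues 1-391, E. coli), 4 nM, preincubated 15 min with compound, then reacted 30 min with 15 μM ATP on MBP-coated plates (50 mM HEPES pH 7.5, 10 mM MgCl2, 0.01% Brij 35). Phospho-MBP detected by antibody ELISA at 450 nm. Tested at 10 μM or 10-point titrations; IC50 from 4-parameter logistic fit.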

T1 sequence (Q96GD4 whole entry): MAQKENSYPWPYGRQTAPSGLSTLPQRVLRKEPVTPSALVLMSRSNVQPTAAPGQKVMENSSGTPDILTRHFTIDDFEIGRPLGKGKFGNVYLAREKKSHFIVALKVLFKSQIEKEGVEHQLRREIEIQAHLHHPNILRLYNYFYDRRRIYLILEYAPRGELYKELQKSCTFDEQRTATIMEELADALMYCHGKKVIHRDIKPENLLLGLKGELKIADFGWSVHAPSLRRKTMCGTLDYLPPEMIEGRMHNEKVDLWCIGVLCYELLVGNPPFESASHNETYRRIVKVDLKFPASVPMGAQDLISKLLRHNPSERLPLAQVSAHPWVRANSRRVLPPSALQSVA

Row | SMILES | GI50 [1] [µM] | IC50 [2] [µM] | GI50 [3] [µM] | GI50 [4] [µM] | GI50 [5] [µM] | GI50 [6] [µM] | GI50 [7] [µM] | GI50 [8] [µM] | IC50 [9] [µM] | GI50 [10] [µM] | IC50 [11] [µM]
1 | CN1CCC(Oc2ccc(-c3n[nH]c4ccc(NC(=O)C(c5cccs5)N5CCCC5)cc34)cc2)CC1 (stereo not shown) [Example A91, N-(3-(4-((1-methylpiperidin-4-yl)oxy)phenyl)-1H-indazol-5-yl)-2-(pyrrolidin-1-yl)-2-(thiophen-2-yl)acetamide] | ≤ 5 | ≤ 5 | ≤ 5 | ≤ 5 | ≤ 5 | ≤ 5 | ≤ 5 | ≤ 5 | ≤ 5 | ≤ 5 | ≤ 5
2 | CN1[C@@H]2CC[C@H]1C[C@@H](Oc1ccc(-c3n[nH]c4ccc(C(=O)NC(c5ccccc5)C5CC5)cc34)cc1)C2 (stereo partly drawn) [Example A178, N-(cyclopropyl(phenyl)methyl)-3-(4-(((1R,3r,5S)-8-methyl-8-azabicyclo[3.2.1]octan-3-yl)oxy)phenyl)-1H-indazole-5-carboxamide] | ≤ 5 | ≤ 5 | ≤ 5 | ≤ 5 | ≤ 5 | ≤ 5 | ≤ 5 | ≤ 5 | ≤ 5 | ≤ 5 | ≤ 5
3 | C[C@@H](NC(=O)c1ccc2[nH]nc(-c3ccc(OC4CCN(C)CC4)cc3)c2c1)c1ccccc1F [Example A134, (R)—N-(1-(2-fluorophenyl)ethyl)-3-(4-((1-methylpiperidin-4-yl)oxy)phenyl)-1H-indazole-5-carboxamide] | ≤ 5 | ≤ 5 | ≤ 5 | ≤ 5 | ≤ 5 | ≤ 5 | 5 to 20 | ≤ 5 | ≤ 5 | ≤ 5 | ≤ 5
4 | COCCN1CCC(Oc2ccc(-c3n[nH]c4ccc(C(=O)NC(c5ccccc5)C5CC5)cc34)cc2)CC1 (stereo not shown) [Example A98, N-(cyclopropyl(phenyl)methyl)-3-(4-((1-(2-methoxyethyl)piperidin-4-yl)oxy)phenyl)-1H-indazole-5-carboxamide] | ≤ 5 | ≤ 5 | ≤ 5 | ≤ 5 | ≤ 5 | ≤ 5 | ≤ 5 | ≤ 5 | ≤ 5 | ≤ 5 | ≤ 5
5 | CN1CCC(Oc2ccc(-c3n[nH]c4ccc(NC(=O)C(c5ccccc5)C5CC5)cc34)cc2)CC1 (stereo not shown) [Example A138, 2-cyclopropyl-N-(3-(4-((1-methylpiperidin-4-yl)oxy)phenyl)-1H-indazol-5-yl)-2-phenylacetamide] | ≤ 5 | ≤ 5 | ≤ 5 | ≤ 5 | ≤ 5 | ≤ 5 | ≤ 5 | ≤ 5 | ≤ 5 | ≤ 5 | ≤ 5

Other lines, results leading:

Row | GI50 [1] [µM] | IC50 [2] [µM] | GI50 [3] [µM] | GI50 [4] [µM] | GI50 [5] [µM] | GI50 [6] [µM] | GI50 [7] [µM] | GI50 [8] [µM] | IC50 [9] [µM] | GI50 [10] [µM] | IC50 [11] [µM] | SMILES
6 | ≤ 5 | ≤ 5 | ≤ 5 | ≤ 5 | ≤ 5 | ≤ 5 | ≤ 5 | ≤ 5 | ≤ 5 | ≤ 5 | ≤ 5 | COCCN1CCC(Oc2ccc(-c3n[nH]c4ccc(C(=O)N[C@H](c5cccs5)C5CC5)cc34)cc2)CC1 [Example A163, (S)—N-(cyclopropyl(thiophen-2-yl)methyl)-3-(4-((1-(2-methoxyethyl)piperidin-4-yl)oxy)phenyl)-1H-indazole-5-carboxamide]
7 | ≤ 5 | ≤ 5 | ≤ 5 | ≤ 5 | ≤ 5 | ≤ 5 | ≤ 5 | ≤ 5 | ≤ 5 | ≤ 5 | ≤ 5 | CN1CCC(Oc2ccc(-c3n[nH]c4ccc(C(=O)NC(c5cccs5)C5CC5)cc34)cc2)CC1 (stereo not shown) [Example A147]
8 | ≤ 5 | ≤ 5 | ≤ 5 | ≤ 5 | ≤ 5 | ≤ 5 | ≤ 5 | ≤ 5 | ≤ 5 | ≤ 5 | ≤ 5 | O=C(NC(c1ccccc1)C1CC1)c1ccc2[nH]nc(-c3ccc(OC4CCN(C5COC5)CC4)cc3)c2c1 (stereo not shown) [Example A157]
9 | ≤ 5 | ≤ 5 | ≤ 5 | ≤ 5 | ≤ 5 | ≤ 5 | ≤ 5 | ≤ 5 | ≤ 5 | ≤ 5 | ≤ 5 | CN1CCC(Oc2ccc(-c3n[nH]c4ccc(C(=O)NC(c5ccccc5)C5CCOCC5)cc34)cc2)CC1 (stereo not shown) [Example A177, 3-(4-((1-methylpiperidin-4-yl)oxy)phenyl)-N-(phenyl(tetrahydro-2H-pyran-4-yl)methyl)-1H-indazole-5-carboxamide]
10 | ≤ 5 | ≤ 5 | ≤ 5 | ≤ 5 | ≤ 5 | ≤ 5 | ≤ 5 | ≤ 5 | ≤ 5 | ≤ 5 | ≤ 5 | COCCN1CCC(Oc2ccc(-c3n[nH]c4ccc(NC(=O)C(c5ccsc5)N5CCCC5)cc34)cc2)CC1 (stereo not shown) [Example A175, N-(3-(4-((1-(2-methoxyethyl)piperidin-4-yl)oxy)phenyl)-1H-indazol-5-yl)-2-(pyrrolidin-1-yl)-2-(thiophen-3-yl)acetamide]
11 | ≤ 5 | ≤ 5 | ≤ 5 | ≤ 5 | ≤ 5 | ≤ 5 | ≤ 5 | ≤ 5 | ≤ 5 | ≤ 5 | ≤ 5 | O=CN1CCC(Oc2ccc(-c3n[nH]c4ccc(NC(=O)C(c5ccccn5)C5CCCC5)cc34)cc2)CC1 (stereo not shown) [Example A176, 2-cyclopentyl-N-(3-(4-((1-formylpiperidin-4-yl)oxy)phenyl)-1H-indazol-5-yl)-2-(pyridin-2-yl)acetamide]
